Here are results for 21 compounds from US20220177456A1, “COMPOUNDS, COMPOSITIONS AND METHODS” (Denali Therapeutics Inc., priority 2019, published 2022).

For this test, the system named is ISR pathway (ATF4 translation), H4 ATF4-NLuc (clone 17) cell line. Kind of test: ATF4 Nano Luciferase reporter integrated stress response (ISR) assay in H4 ATF4-NLuc cells. In kind it is cell-based. The conditions noted are these: human H4 neuroglioma ATF4-NLuc cells; compound 30 minutes, then 50 μm sodium arsenite for 6 hours; luminescence readout. An excerpt:
Cellular stress leads to activation of the integrated stress response pathway through one of four eukaryotic initiation factor 2α kinases and halts global translation, while allowing for the translation of select transcripts like ATF4 (activating transcription factor 4) that are important for the response to cellular stress. During normal conditions, small open reading frames (ORFs) in the 5′ UTR of ATF4 occupy the ribosome and prevent translation of the coding sequence of ATF4. During stress conditions however, the ribosome scans past these upstream ORFs and preferentially begins translation at the coding sequence of ATF4. In this way, the translation, and thus protein level of ATF4 is a readout of ISR pathway activation. Thus, a fusion of the uORFs and the beginning of the coding sequence of ATF to a common cellular reporter like nano-luciferase allows for a sensitive and high-throughput readout of ISR pathway activity.
Compounds as provided herein were tested in the following assay. The ATF4 Nano Luciferase reporter was constructed by fusing the human full length 5′ untranslated region (5′-UTR) and a small portion of the coding sequence of the ATF4 gene upstream of the Nano Luciferase (NLuc) coding sequence lacking it's start codon. Specifically, nucleotides +1 through +364 (relative to the transcriptional start site) of ATF4 transcript variant 2 (NCBI NM_182810.2) flanked 5′ by EcoRI and 3′ by BamHI restriction enzyme sites were synthesized and cloned into the EcoRI/BamHI cloning sites of pLVX-EF1a-IRES-Puro lentivirus vector (Clontech). Lentiviral particles were produced with Lenti-X single shots (VSV-G, Clontech) according to the manufacturer's instructions and used to transduce a human H4 neuroglioma cell line (ATCC HT1B-148). H4 cells were selected with 1.25 μg/mL Puromycin, and clonal cell lines generated by limiting dilution. We utilized this cell line to generate an integrated stress response (ISR) assay to evaluate the activity of ISR pathway inhibitors via luminescence readout. The H4 ATF4-NLuc (clone 17) cell line is plated at a density of […] cells in 96-well or 384-well respectively in DMEM +10% fetal bovine serum. 24-hours later test compounds diluted in dimethyl sulfoxide (DMSO) are added for 30 minutes at 37° C., followed by ISR pathway activation with 50 μm sodium arsenite aqueous solution for 6 additional hours. Nano Glo luciferase reagent (N1150, Promega) is added according to manufacturer instructions and the luminescence signal (corresponding to the level of ATF4 translation and thus ISR pathway activation) is read with a standard plate reader with luminescence detection capabilities.
In the tables below, activity of the tested compounds is provided, and in Table 3 as follows: +++=0.003 μM<IC50<1 μM; ++=IC50 1-10 μM; +=IC50>10 μM.
The IC50 is the concentration at which inhibition is half-maximal. A lower IC50 goes with inhibition by little substance. The compound `O=C(COc1ccc(C(F)(F)F)cc1)N[C@@H]1CC[C@@H](C(=O)NCc2ccc(C(F)(F)F)cc2)OC1` [Example 1, (2S,5R)-5-[[2-[4-(trifluoromethyl)phenoxy]acetyl]amino]-N-[[4-(trifluoromethyl)phenyl]methyl]tetrahydropyran-2-carboxamide] gave an IC50 of 3 to 1000 nM. For `O=C(COc1ccc(C(F)(F)F)cc1)N[C@@H]1CC[C@@H](C(=O)Nc2ccc3cc(Cl)ccc3n2)OC1` [Example 2, (2S,5R)—N-(6-chloro-2-quinolyl)-5-[[2-[4-(trifluoromethyl)phenoxy]acetyl]amino]tetrahydropyran-2-carboxamide] the value was 3 to 1000 nM; for `CC1CN(C(=O)[C@@H]2CC[C@@H](NC(=O)COc3ccc(Cl)cc3)CO2)Cc2ccc(Cl)cc21` (stereo partly drawn) [Example 3, 2-(4-chlorophenoxy)-N-[(3R,6S)-6-(6-chloro-4-methyl-3,4-dihydro-1H-isoquinoline-2-carbonyl)tetrahydropyran-3-yl]acetamide], 3 to 1000 nM; for `O=C(COc1ccc(C(F)(F)F)cc1)N[C@@H]1CC[C@@H](C(=O)NCCCOC(F)(F)F)OC1` [Example 4, (2S,5R)-N-[3-(trifluoromethoxy)propyl]-5-[[2-[4-(trifluoromethyl)phenoxy]acetyl]amino]tetrahydropyran-2-carboxamide], 3 to 1000 nM. For `O=C(COc1ccc(C(F)(F)F)cc1)N[C@@H]1CC[C@@H](C(=O)N2CCc3cc(C(F)(F)F)ccc3C2)OC1` [Example 5, N-[(3R,6S)-6-[6-(trifluoromethyl)-3,4-dihydro-1H-isoquinoline-2-carbonyl]tetrahydropyran-3-yl]-2-[4-(trifluoromethyl)phenoxy] acetamide] the value was 3 to 1000 nM; for `CC1c2ccc(Cl)cc2CCN1C(=O)[C@@H]1CC[C@@H](NC(=O)COc2ccc(Cl)cc2)CO1` (stereo partly drawn) [Example 6, 2-(4-chlorophenoxy)-N-[(3R,6S)-6-(6-chloro-1-methyl-3,4-dihydro-1H-isoquinoline-2-carbonyl)tetrahydropyran-3-yl]acetamide], 3 to 1000 nM; for `O=C(COc1ccc(C(F)(F)F)cc1)N[C@@H]1CC[C@@H](C(=O)Nc2ccc3ccc(Cl)cc3n2)OC1` [Example 7, (2S,5R)-N-(7-chloro-2-quinolyl)-5-[[2-[4-(trifluoromethyl)phenoxy]acetyl]amino]tetrahydropyran-2-carboxamide], 3 to 1000 nM. Compound `O=C(COc1ccc(C(F)(F)F)cc1)N[C@@H]1CC[C@@H](C(=O)N2C[C@@H]3[C@H](C2)[C@H]3C(F)(F)F)OC1` [Example 8, N-[(3R,6S)-6-[(1r,5s)-6-(trifluoromethyl)-3-azabicyclo[3.1.0]hexane-3-carbonyl]tetrahydropyran-3-yl]-2-[4-(trifluoromethyl)phenoxy]acetamide] displayed an IC50 of 1000 to 10000 nM. The result for `O=C(COc1ccc(C(F)(F)F)cc1)N[C@@H]1CC[C@@H](C(=O)Nc2cc3ccc(Cl)cc3cn2)OC1` [Example 9, (2S,5R)-N-(7-chloro-3-isoquinolyl)-5-[[2-[4-(trifluoromethyl)phenoxy]acetyl]amino]tetrahydropyran-2-carboxamide] reads 3 to 1000 nM. The result for `O=C(COc1ccc(C(F)(F)F)cc1)N[C@@H]1CC[C@@H](C(=O)N2CCc3nc(C(F)(F)F)ccc3C2)OC1` [Example 10, N-[(3R,6S)-6-[2-(trifluoromethyl)-7,8-dihydro-5H-1,6-naphthyridine-6-carbonyl]tetrahydropyran-3-yl]-2-[4-(trifluoromethyl)phenoxy] acetamide] reads 3 to 1000 nM. In turn, `O=C(COc1ccc(C(F)(F)F)cc1)N[C@@H]1CC[C@@H](C(=O)N2Cc3ccc(C(F)(F)F)cc3C2)OC1` [Example 11, N-[(3R,6S)-6-[5-(trifluoromethyl)isoindoline-2-carbonyl]tetrahydropyran-3-yl]-2-[4-(trifluoromethyl)phenoxy] acetamide] yielded an IC50 of 3 to 1000 nM. For `O=C(N[C@@H]1CC[C@@H](C(=O)N[C@H]2C[C@@H](COC(F)(F)F)C2)OC1)c1ccc2cc(C(F)(F)F)ccc2n1` [Example 12, N-[(3R,6S)-6-[[3-cis-(trifluoromethoxymethyl)cyclobutyl]carbamoyl]tetrahydropyran-3-yl]-6-(trifluoromethyl) quinoline-2-carboxamide] the value was 3 to 1000 nM; for `O=C(COc1ccc(C(F)(F)F)cc1)N[C@@H]1CC[C@@H](C(=O)N[C@H]2C[C@@H](COC(F)(F)F)C2)OC1` [Example 13, (2S,5R)-N-[3-cis-(trifluoromethoxymethyl)cyclobutyl]-5-[[2-[4-(trifluoromethyl)phenoxy]acetyl]amino]tetrahydropyran-2-carboxamide], 3 to 1000 nM.

In the case of `O=C(COc1ccc(Cl)cc1)N[C@@H]1CC[C@@H](C(=O)NCc2cccc(C(F)(F)F)c2)OC1` [Example 14, (2S,5R)-5-[[2-(4-chlorophenoxy)acetyl]amino]-N-[[3-(trifluoromethyl)phenyl]methyl] tetrahydropyran-2-carboxamide], the IC50 was in the range of 3 to 1000 nM.

`O=C(COc1ccc(Cl)cc1)N[C@@H]1CC[C@@H](C(=O)NCc2cccc(Cl)c2)OC1` [Example 15, (2S,5R)-5-[[2-(4-chlorophenoxy)acetyl]amino]-N-[(3-chlorophenyl)methyl] tetrahydropyran-2-carboxamide] came in with an IC50 of 3 to 1000 nM.

Compound `O=C(COc1ccc(Cl)cc1)N[C@@H]1CC[C@@H](C(=O)NCc2ccc(C(F)(F)F)nc2)OC1` [Example 16, (2S,5R)-5-[[2-(4-chlorophenoxy)acetyl]amino]-N-[[6-(trifluoromethyl)-3-pyridyl]methyl] tetrahydropyran-2-carboxamide] had an IC50 of 3 to 1000 nM. For `C[C@@H](NC(=O)[C@@H]1CC[C@@H](NC(=O)COc2ccc(Cl)cc2)CO1)c1ccc(Cl)cc1` [Example 17, (2S,5R)-5-[[2-(4-chlorophenoxy)acetyl]amino]-N-[(1R)-1-(4-chlorophenyl)ethyl] tetrahydropyran-2-carboxamide] the value was 3 to 1000 nM; for `C[C@H](NC(=O)[C@@H]1CC[C@@H](NC(=O)COc2ccc(Cl)cc2)CO1)c1ccc(Cl)cc1` [Example 18, (2S,5R)-5-[[2-(4-chlorophenoxy)acetyl]amino]-N-[(1S)-1-(4-chlorophenyl)ethyl] tetrahydropyran-2-carboxamide], 3 to 1000 nM; for `CN(Cc1ccc(Cl)cc1)C(=O)[C@@H]1CC[C@@H](NC(=O)COc2ccc(Cl)cc2)CO1` [Example 19, (2S,5R)-5-[[2-(4-chlorophenoxy)acetyl]amino]-N-[(4-chlorophenyl)methyl]-N-methyl-tetrahydropyran-2-carboxamide], 3 to 1000 nM. The compound `O=C(COc1ccc(Cl)cc1)N[C@@H]1CC[C@@H](C(=O)NCc2ccc(C(F)(F)F)cc2)OC1` [Example 20, (2S,5R)-5-[[2-(4-chlorophenoxy)acetyl]amino]-N-[[4-(trifluoromethyl)phenyl]methyl] tetrahydropyran-2-carboxamide] came in with an IC50 of 3 to 1000 nM.

In the case of `O=C(COc1ccc(Cl)cc1)N[C@@H]1CC[C@@H](C(=O)N2CCc3ccc(Cl)cc3C2)OC1` [Example 21, 2-(4-chlorophenoxy)-N-[(3R,6S)-6-(7-chloro-3,4-dihydro-1H-isoquinoline-2-carbonyl)tetrahydropyran-3-yl]acetamide], the IC50 was 3 to 1000 nM.
